How the values were obtained:
hCA XII = hCA XII (Homo sapiens, UniProt O43570); assay: stopped-flow CO2 hydrase assay, hCA XII; type: biochemical; settings: mean from three assays, errors ±5–10%
Procedure: (§1) The CO2 concentrations ranged from 1.7 to 17 mM for the determination of the kinetic parameters and inhibition constants. […] The uncatalysed rates were determined in the same manner and subtracted from the total observed rates. […] The inhibition constants were obtained by non-linear least-squares methods using PRISM 3 and the Cheng–Prusoff equation and represent the mean from at least three different determinations.

hCA IX = hCA IX (Homo sapiens, UniProt Q16790); assay: stopped-flow CO2 hydrase assay, hCA IX; type: biochemical; settings: mean from three assays, errors ±5–10%
Procedure: as §1

[1] = system: H2O2-stimulated human Achilles tendon-derived tenocytes; assay: cell cycle analysis by flow cytometry (propidium iodide); type: cell-based; settings: 48 h, after H2O2 100 µM for 3 h
Procedure: (§2) Compound A and acetazolamide were administered as reference compounds.
The progression of the cell cycle was assessed by flow cytometry, as already reported. Briefly, after the pre-incubation with H2O2 (100 µM for 3 h) and the exposure time (48 h), approximately 0.5 × 10^5 cells/experimental condition were fixed with cold ethanol 70% v/v and afterwards stained with 1 mg/mL propidium iodide (PI) (final concentration 10 µg/mL) and 10 mg/mL RNAse (final concentration 100 µg/mL) and kept overnight at 4 °C in the dark. Each experiment was performed two times in triplicates per experimental condition (n = 6). Cell cycle profiles (1 × 10^4 events/sample) were finally analysed with a CytoFLEX flow cytometer (Beckman Coulter, Indianapolis, IN, USA), and data were quantified using the ModFit LT™ 4.0 software (De Novo Software, Glendale, CA, USA).

[2] = system: reduced myoglobin (deoxy-Mb); assay: myoglobin carbonylation assay (CO release); parameters: species or system horse; settings: for MbCO formed: after 210 min of incubation, 1:1 CORM–Mb ratio (about 20 μM CORM); for CO units released: after 300 min of incubation with Mb, 37 °C; for CO-release profile (MbCO formed over time): 1:1 and 1:6 CORM:Mb, up to 300 min, comparison within series
Procedure: To determine the CO-releasing properties of the designed compounds, the myoglobin carbonylation assay was employed, with some deviations from the standard protocol, as previously reported. The analysed compounds were incubated with reduced myoglobin (deoxy-Mb), and spectra were recorded every 30 min up to 300 min. The release of CO was assessed by evaluating the formation of carbonylated myoglobin (Mb-CO) over time (Figure 3). […] The releasing properties of the compounds were also expressed as CO units released after 300 min of incubation with Mb, as reported in Figure S1 (Supplementary Information File).
All the employed reagents were of analytical grade and acquired from Merck (Milan, Italy). Gaseous CO was obtained from Rivoira (Milan, Italy). A Shimadzu UV1900 UV-Vis Spectrophotometer from 275 to 700 nm at the scanning rate of 200 nm/min was used to record UV-Vis absorption spectra in a disposable plastic cuvette (path length 0.44 cm). The second derivative spectra were generated with the Origin Lab software, and the Savitzky–Golay method was applied using 25 data points for the differentiation process. Neither an increase nor a decrease in the number of points caused changes in the wavelength or in the bandwidth. Lyophilised horse heart Mb was dissolved in phosphate-buffered saline flushed with N2 (PBS, 0.01 M, pH 7.4 to a 20–22 μM final concentration). Two millilitres of this freshly prepared stock solution were placed in a cuvette to record the UV-Vis absorption spectrum of met-Mb. Next, the solutions were divided into two halves: 10 μL of sodium dithionite (30 mg/mL) was added to the first half (reference), and the UV–Vis spectrum of deoxy-Mb was registered. After that, the solution was flushed with CO gas, and the Mb-CO spectrum was acquired. Sodium dithionite was added to the second half (sample), and a spectrum was recorded. Afterwards, a CORM DMSO solution was added to a final CORM concentration of 1.67 μM, 3.33 μM or 20 μM and gently mixed. The solution was covered with 300 μL of light mineral oil to avoid CO escaping and oxygenation of Mb, and the absorption spectrum was recorded at t = 0. Spectra were acquired every 30 min for 300 min, keeping the sample at 37 °C. When necessary, a freshly prepared sodium dithionite solution was added. After 300 min, the total Mb concentration at the end of the assay was determined by flushing the sample with CO gas. Mb-CO concentration at each time point was determined, as previously reported. Each experiment was replicated three times, and the data were expressed as mean ± SEM.

[3] = system: Human Achilles tendon-derived tenocytes; assay: cell metabolic activity (MTT test), basal conditions; type: cell-based; settings: 6.25–50 µM; for cell metabolic activity (MTT): vs untreated control
Procedure: (§3) Human Achilles tendon-derived tenocytes (#TEN-F) were purchased by ZenBio Inc. (Durham, NC, USA) and maintained in complete alpha-MEM (EuroClone, Milan, Italy) supplemented with 10% of heat-inactivated FBS (Gibco, Thermo Fisher Scientific, Waltham, MA, USA) and 1% penicillin/streptomycin (EuroClone, Milan, Italy) at 37 °C and 5% CO2 and used from passage 3 up to passage 6.
(§4) Cells were seeded in 96-well plates (0.5 × 10^4/well) or 6-well plates (0.5 × 10^5/well) (ThermoFisher Scientific, Waltham, MA, USA) and left to adhere overnight at 37 °C and 5% CO2. For cell metabolic activity experiments (MTT test), tenocytes were treated with increasing concentrations of compounds (range 0–50 µM) for 24 and 48 h. Compounds were dissolved in DMSO to obtain a 200 mM stock solution, and they were afterwards diluted in complete alpha-MEM (DMSO final concentration = 0.1%) for further analyses. In a second set of MTT experiments, tenocytes were pre-incubated with 100 µM H2O2 for 3 h. After that, the pre-incubation medium was discarded and replaced with a fresh one containing the proper compound at increasing concentrations for 24 and 48 h. At the established time points, samples were processed for further analyses.
(§5) Tenocytes were seeded in 96 well tissue culture-treated plates (Falcon®, Corning Incorporated, Brooklyn, NY, USA) at 0.5 × 10^4 cells/well. Untreated cells (0 µM) were set as control (100% of cell metabolic activity). At the established time points, the exposure media were replaced by fresh medium containing 3-(4,5-dimethylthiazol-2-yl)-2,5-diphenyltetrazolium bromide (MTT) 0.5 mg/mL (Merck, Darmstadt, Germany) and processed as elsewhere reported [18]. The optical density in each well was measured using a spectrophotometer (Thermo Fisher Scientific, Waltham, MA, USA) at a wavelength of 540 nm. Each experiment was performed three times in triplicates per experimental condition (n = 9).

[4] = system: H2O2-stimulated human Achilles tendon-derived tenocytes; assay: collagen type I secretion (ELISA); type: cell-based; settings: 48 h, after H2O2 100 µM for 3 h, compared to untreated cells, normalised on MTT
Procedure: as §2
Amounts of collagen type I secreted in supernatants harvested from 96 well plates were detected by a human collagen type 1 ELISA kit (Cosmo Bio Co., Ltd., Tokyo, Japan; cat. no. ACE-EC1-E105-EX). Samples were pipetted into suitably coated wells as described elsewhere. Each ELISA test was performed three times in duplicates per experimental condition (n = 6). The concentration of collagen type I (µg/mL) was calculated using a standard curve generated with a specific standard provided by the manufacturer by means of the Prism 5.0 software (GraphPad, San Diego, CA, USA).

hCA II = hCA II (Homo sapiens, UniProt P00918); assay: stopped-flow CO2 hydrase assay, hCA II; type: biochemical; settings: mean from three assays, errors ±5–10%
Procedure: as §1

[5] = system: H2O2-stimulated human Achilles tendon-derived tenocytes; assay: cell metabolic activity (MTT test), pre-incubation with H2O2; type: cell-based; settings: 6.25–50 µM, after H2O2 100 µM for 3 h
Procedure: as §3, §4, §5

hCA I = hCA I (Homo sapiens, UniProt P00915); settings: stopped-flow CO2 hydrase assay; cells marked a; cited from earlier work
Sequence of hCA I (P00915 whole entry): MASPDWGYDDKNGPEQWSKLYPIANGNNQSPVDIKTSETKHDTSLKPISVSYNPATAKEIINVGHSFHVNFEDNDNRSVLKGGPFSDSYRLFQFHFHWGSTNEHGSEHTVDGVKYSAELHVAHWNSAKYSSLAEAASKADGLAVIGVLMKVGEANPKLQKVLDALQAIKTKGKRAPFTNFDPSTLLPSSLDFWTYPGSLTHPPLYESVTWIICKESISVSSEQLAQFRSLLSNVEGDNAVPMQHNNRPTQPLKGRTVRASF

Sequence of hCA XII (O43570 25-354): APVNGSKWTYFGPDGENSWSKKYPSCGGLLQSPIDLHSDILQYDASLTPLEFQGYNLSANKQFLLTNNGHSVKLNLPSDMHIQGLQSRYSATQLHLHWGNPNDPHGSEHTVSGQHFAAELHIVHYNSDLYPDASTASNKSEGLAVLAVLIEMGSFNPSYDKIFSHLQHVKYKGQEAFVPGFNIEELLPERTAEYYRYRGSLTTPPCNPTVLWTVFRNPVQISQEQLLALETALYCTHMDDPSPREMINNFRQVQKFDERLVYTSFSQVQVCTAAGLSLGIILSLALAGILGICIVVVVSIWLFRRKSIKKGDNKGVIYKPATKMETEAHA

Compound: 4-(Diprop-2′-ynylamino)benzenesulfonamide hexacarbonyldicobalt [1c]
- Ki (hCA XII): 7.5 nM
- Ki (hCA IX): 6.2 nM
- cell cycle progression (H2O2-induced G2 increase) [1]: weakly but significantly counteract the H2O2-induced G2 increase
- MbCO formed [2]: 3.66 µM
- CO units released ([2]; 1:12 CORM:Mb ratio (1.67 μM CORM)): 2.3 CO units
- cell metabolic activity (MTT) ([3]; 48 h exposure): constantly effective on cell metabolic activity over the concentrations
- collagen type I secretion [4]: weakly but significantly increases collagen type 1 secretion

Compound: C#CCNc1ccc(S(N)(=O)=O)cc1.[C-]#[O+].[C-]#[O+].[C-]#[O+].[C-]#[O+].[C-]#[O+].[C-]#[O+].[Co].[Co] [1a, 4-(prop-2-ynylamino)benzenesulfonamide hexacarbonyldicobalt]
- Ki (hCA II): 215 nM
- KI hCA IX (hCA IX): ineffective
- cytotoxicity (MTT) ([5]; 24 h exposure): cytotoxic at the highest concentrations used
- cytotoxicity (MTT) ([5]; 48 h exposure): reveal cytotoxicity at the highest concentrations
- CO-release profile (MbCO formed over time) [2]: the fastest and most efficient releaser among the series
- MbCO formed [2]: 9.05 µM
- CO units released ([2]; 1:6 CORM:Mb ratio (3.33 μM CORM)): 1.6 CO units
- cell metabolic activity (MTT) ([3]; 24 h exposure): significantly increase cell metabolic activity
- cell metabolic activity (MTT) ([3]; 48 h exposure): well increases cell metabolic activity at the lower concentrations
- Ki (hCA I): 901 nM
- collagen type I secretion [4]: dramatically increases its secretion almost three times

Compound: CC#CCNc1ccc(S(N)(=O)=O)cc1.[C-]#[O+].[C-]#[O+].[C-]#[O+].[C-]#[O+].[C-]#[O+].[C-]#[O+].[Co].[Co] [2a, 4-(but-2-yn-1-ylamino)benzenesulfonamide hexacarbonyldicobalt]
- cell metabolic activity (MTT) ([5]; 24 h exposure): best test compounds able to increase cell metabolic activity
- CO-release profile (MbCO formed over time) [2]: superimposable profile of MbCO formed over time
- cell metabolic activity (MTT) ([3]; 24 h exposure): significantly increase cell metabolic activity
- cytotoxicity (MTT) ([3]; 48 h exposure): biocompatible
- cell metabolic activity (MTT) ([3]; 48 h exposure): increases tenocyte metabolic activity to a lesser extent than 1a

Compound: CC#CCN(CC#CC)c1ccc(S(N)(=O)=O)cc1.[C-]#[O+].[C-]#[O+].[C-]#[O+].[C-]#[O+].[C-]#[O+].[C-]#[O+].[Co].[Co] [2c, 4-(Di(but-2-yn-1-yl)amino)benzenesulfonamide hexacarbonyldicobalt]
- cell metabolic activity (MTT) ([5]; 24 h exposure): best test compounds able to increase cell metabolic activity
- cell metabolic activity (MTT) ([5]; 48 h exposure): the best compound in terms of cell metabolic activity increase
- cell metabolic activity (MTT) ([3]; 24 h exposure): significantly increase cell metabolic activity
- cell metabolic activity (MTT) ([3]; 48 h exposure): constantly effective on cell metabolic activity over the concentrations

Compound: CCC#CCNc1ccc(S(N)(=O)=O)cc1.[C-]#[O+].[C-]#[O+].[C-]#[O+].[C-]#[O+].[C-]#[O+].[C-]#[O+].[Co].[Co] [3a, 4-(pent-2-yn-1-ylamino)benzenesulfonamide hexacarbonyldicobalt]
- cytotoxicity (MTT) ([5]; 24 h exposure): cytotoxic at the highest concentrations used
- CO-release profile (MbCO formed over time) [2]: superimposable profile of MbCO formed over time
- cytotoxicity (MTT) ([3]; 24 h exposure): reveal cytotoxicity

Compound: CCC#CCOc1ccc(S(N)(=O)=O)cc1.[C-]#[O+].[C-]#[O+].[C-]#[O+].[C-]#[O+].[C-]#[O+].[C-]#[O+].[Co].[Co] [3b, 4-(Pent-2-yn-1-yloxy)benzenesulfonamide hexacarbonyldicobalt]
- cytotoxicity (MTT) ([3]; 48 h exposure): cytotoxic, already at the lowest concentration

Compound: CCC#CCN(CC#CCC)c1ccc(S(N)(=O)=O)cc1.[C-]#[O+].[C-]#[O+].[C-]#[O+].[C-]#[O+].[C-]#[O+].[C-]#[O+].[Co].[Co] [3c, 4-(Di(pent-2-yn-1-yl)amino)benzenesulfonamide hexacarbonyldicobalt]
- cytotoxicity (MTT) ([3]; 48 h exposure): cytotoxic, already at the lowest concentration

Compound: C#CCNc1ccc(S(N)(=O)=O)cc1 [A, 4-(prop-2-ynylamino)benzenesulfonamide, reference compound]
- cell cycle progression (H2O2-induced G2 increase) [1]: ineffective
- cell metabolic activity (MTT) ([3]; 48 h exposure): still ineffective
- collagen type I secretion [4]: do not enhance the secretion

Compound: CC(=O)Nc1nnc(S(N)(=O)=O)s1 [AAZ, acetazolamide, reference compound]
- cell cycle progression (H2O2-induced G2 increase) [1]: ineffective
- cytotoxicity (MTT) ([5]; 24 h exposure): cytotoxicity at the highest dose
- cytotoxicity (MTT) ([5]; 48 h exposure): cytotoxic at the highest concentration
- cell metabolic activity (MTT) ([3]; 48 h exposure): still ineffective
- collagen type I secretion [4]: do not enhance the secretion

Compound: C#CCOc1ccc(S(N)(=O)=O)cc1 [B, 4-(prop-2′-ynyloxy)benzenesulfonamide, reference compound]
- cell metabolic activity (MTT) ([3]; 48 h exposure): still ineffective

Compound: C#CCNc1ccccc1.[C-]#[O+].[C-]#[O+].[C-]#[O+].[C-]#[O+].[C-]#[O+].[C-]#[O+].[Co].[Co] [CO-A, N-(prop-2-yn-1-yl)aniline hexacarbonyldicobalt, reference compound]
- cell metabolic activity (MTT) ([5]; 24 h exposure): capable of increasing cell metabolic activity
- cell metabolic activity (MTT) ([5]; 48 h exposure): increase cell metabolic activity only at 50 µM
- MbCO formed [2]: 8.1 µM
- cell metabolic activity (MTT) ([3]; 48 h exposure): extremely active in terms of cell metabolic activity increase

Compound: C#CCOc1ccccc1.[C-]#[O+].[C-]#[O+].[C-]#[O+].[C-]#[O+].[C-]#[O+].[C-]#[O+].[Co].[Co] [CO-B, (Prop-2-yn-1-yloxy)benzene hexacarbonyldicobalt, reference compound]
- cell metabolic activity (MTT) ([5]; 24 h exposure): capable of increasing cell metabolic activity
- cell metabolic activity (MTT) ([5]; 48 h exposure): can increase cell metabolic activity over the concentration range
- MbCO formed [2]: 4 µM
- cell metabolic activity (MTT) ([3]; 48 h exposure): extremely active in terms of cell metabolic activity increase

Compound: C#CCN(CC#C)c1ccccc1.[C-]#[O+].[C-]#[O+].[C-]#[O+].[C-]#[O+].[C-]#[O+].[C-]#[O+].[Co].[Co] [CO-C, N,N-di(prop-2-yn-1-yl)aniline hexacarbonyldicobalt, reference compound]
- cell metabolic activity (MTT) ([5]; 24 h exposure): capable of increasing cell metabolic activity
- cell metabolic activity (MTT) ([5]; 48 h exposure): increase cell metabolic activity only at 50 µM
- MbCO formed [2]: 3.72 µM
- cell metabolic activity (MTT) ([3]; 48 h exposure): extremely active in terms of cell metabolic activity increase

Reference: PMC11819963, “In Vitro CO-Releasing and Antioxidant Properties of Sulfonamide-Based CAI-CORMs in a H2O2-Stimulated Human Achilles Tendon-Derived Cell Model” (Molecules, 2025)
